In patent publication US4551472A, “Unsymmetrical bis-carbamate compounds” (priority 1984, dated 1985):
Values after ≈ are worked out from the molar mass of the structure shown.

Experiments:
[1] = system: bean aphid (Aphis fabae Scop.); test: whole plant or invertebrate; settings: foliar, read-out: Biological Activity in LD50's: Aphid
Protocol: (§1) The thus-prepared stock suspension contained 0.5 percent by weight of compound. The test concentrations in parts per million by weight employed in the tests described hereinbelow were obtained by appropriate dilutions of the stock suspension with water. The test procedures were as follows:
Adults and nymphal stages of the bean aphid (Aphis fabae Scop.) reared on potted dwarf nasturtium plants at 65°-70° F. and 50-70 percent relative humidity, consistuted with test insects. For testing purposes, the number of aphids per pot was standardized to 100-150 by trimming plants containing excess aphids.
The potted plants (one pot per compound tested) infested with 100-150 aphids, were placed on a revolving turntable and sprayed with 100-110 milliliters of test compound formulation by use of a DeVilbiss spray gun set at 40 psig. air pressure. This application, which lasted 25 seconds, was sufficient to wet the plants to run-off. As a control, 100-110 milliliters of a water-acetone-emulsifier solution containing no test compound were also sprayed on infested plants. […] Temperature and humidity in the test room during the 24 hour holding period were 65°-70° F. and 50-70 percent, respectively. Aphids which fell onto the paper and were unable to remain standing after being uprighted were considered dead. Aphids remaining on the plants were observed closely for movement and those which were unable to move the length of the body upon stimulation by prodding were considered dead. Percent mortality was recorded for various concentration levels.
(§2) In these tests the pesticidal activity of the compounds at the indicated dosage rate against aphid, mite, Southern Armyworm (SA), Mexican Bean Beetle (MBB), and house fly was rated as follows:
(§3) Several of the unsymmetrical bis-carbamoyl sulfide compounds of this invention were tested against related known compounds.

[2] = system: two-spotted mite (Tetranychus urticae Koch); test: whole plant or invertebrate; settings: foliar, read-out: Biological Activity in LD50's: Mite
Protocol: as §1
Adults and nymphal stage of the two-spotted mite (Tetranychus urticae Koch), reared on Tendergreen bean plants at a temperature of 80±5° F. and at a relative humidity of 50±5 percent, were the test organisms. Infested leaves from a stock culture were placed on the primary leaves of two bean plants six to eight inches in height, growing in a two-and-a-half inch clay pot. 150-200 Mites, a sufficient number for testing, transferred from the excised leaves to the fresh plants in a period of twenty-four hours. Following the twenty-four hour transfer period, the excised leaves were removed from the infested plants. […] The potted plants (one pot per compound) were placed on a revolving turntable and sprayed with 100-110 milliliters of test compound formulation by use of a DeVilbiss spray gun at 40 psig. air pressure. This application, which lasted 25 seconds, was sufficient to wet the plants to run-off. As a control, 100-110 milliliters of a water solution containing acetone and emulsifier in the same concentrations as the test compound formulation, but containing no test compound, were also sprayed on infested plants. The sprayed plants were held at a temperature of 80±5° F. and a 50±5 percent relative humidity for six days, after which a mortality count of motile forms was made. Microscopic examination for motile forms was made on the leaves of the test plants. Any individual which was capable of locomotion upon prodding was considered living.
as §2, §3

[3] = system: southern armyworm (Spodopera eridania, (Cram.)); test: whole plant or invertebrate; settings: Spodoptera eridania, read-out: Biological Activity in LD50's: Southern Armyworm
Protocol: as §1
Larvae of the southern armyworm (Spodopera eridania, (Cram.)), reared on Tendergreen bean plants at a temperature of 80±5° F. and a relative humidity of 50±5 percent, constituted the test insects.
Potted Tendergreen bean plants of standard height and age were placed on a revolving turntable and sprayed with 100-110 milliliters of test compound formulation by use of a DeVilbiss spray gun set at 10 psig air pressure. This application, which lasted 25 seconds, was sufficient to wet plants to run-off. As a control, 100-110 milliliters of a water-acetone-emulsifier solution containing no test compound were also sprayed on infested plants. When dry, the paired leaves were separated and each one was placed in a 9 centimeter Petri dish lined with moistened filter paper. Five randomly selected larvae were introduced into each dish and the dishes were closed. The closed dishes were labeled and held at 80°-85° F. for three days. Although the larvae could easily consume the whole leaf within twenty-four hours, no more food was added. Larvae which were unable to move the length of the body, even upon stimulation by prodding, were considered dead. Percent mortality was recorded for various concentration levels.
as §2, §3

[4] = system: Mexican bean beetle (Epilachna varivestis, Muls.); test: whole plant or invertebrate; settings: read-out: Biological Activity in LD50's: MBB
Protocol: as §1
Fourth instar larvae of the Mexican bean beetle (Epilachna varivestis, Muls.), reared on Tendergreen bean plants at a temperature of 80±5° F. and 50±5 percent relative humidity, were the test insects.
Potted Tendergreen bean plants of standard height and age were placed on a revolving turntable and sprayed with 100-110 milliliters of test compound formulation by use of a DeVilbiss strapy gun set at 10 psig air pressure. This application, which lasted 25 seconds, was sufficient to wet plants to run-off. As a control, 100-110 milliliters of a water-acetone-emulsifier solution containing no test compound were also strayed on infested plants. When dry, the paired leaves were separated and each was placed in a 9 centimeter Petri dish lined with moistened filter paper. Five randomly selected larvae were introduced into each dish, and the dishes were closed. The closed dishes were labeled and held at a temperature of 80±5° F. for three days. Although the larvae could easily consume the leaf within 24 to 48 hours, no more food was added. Larvae which were unable to move the length of the body, even upon stimulation, were considered dead.
as §2, §3

[5] = system: house flies (Musca domestica, L.); test: whole plant or invertebrate; settings: read-out: Biological Activity in LD50's: Housefly
From the text: as §1
The flies were immobilized individuals, males and females, were transferred to a cage consisting of a standard food strainer about five inches in diameter which was inverted over a wrapping-paper-covered surface. […] Ten milliliters of the test formulation were added to a souffle cup containing a one-inch square of an absorbent cotton pad. This bait cup was introduced and centered on the blotting paper under the food strainer prior to admitting the anesthetized flies. The caged flies were allowed to feed on the bait for twenty-four hours, at a temperature of 80±5° F. and the relative humidity of 50±5 percent.
as §2, §3

[6] = system: root-knot nematode, Meloidogyne incognita var. acrita; test: Nematocide Test; further: key: 1: severe galling, equal to untreated plants; 2: moderate galling; 3: light galling; 4: very light galling; 5: no galling, perfect control; format: in vivo; settings: 3.33 m.g. per jar; cucumber, approximately 3 weeks
Protocol: The test organism used was the infective migratory larvae of the root-knot nematode, Meloidogyne incognita var. acrita, reared in the greenhouse on roots of cucumber plants. Infected plants were removed from the culture, and the roots are chopped very finely. A small amount of this inoculum was added to a pint jar containing approximately 180 cc. of soil. The jars were capped and incubated for one week at room temperature. During this period eggs of the nematode were hatched, and the larval forms migrated into the soil.
Ten ml. of the test formulation were added to each of the two jars for each dosage tested. Following the addition of chemical, the jars were capped, and the contents thoroughly mixed on a ball mill for 5 minutes.
The test compounds were formulated by a standard procedure of solution in acetone addition of an emulsifier, and dilution with water. Primary screening tests were conducted at 3.33 m.g. of the test compound per jar.
The jars were left capped at room temperature for a period of 48 hours, and the contents then transferred to 3 inch pots. Subsequently, the pots were seeded to cucumber as an indicator crop and placed in the greenhouse where they were cared for in the normal fashion for approximately 3 weeks.
The cucumber plants were then taken from the pots, the soil removed from the roots; and the amount of galling visually rated.
In the test for activity against nematodes (nem) activity was rated as follows: […]

[7] = Mammalian Toxicity, peroral toxicity to rat; format: in vivo; settings: in vivo, po, read-out: A.O. Rat LD50
Protocol: (§4) Certain compounds were also evaluated to determine their peroral toxicity to mammals by conventional methods. The representative animal selected for this experiment was the rat.

Soy = test: Phytotoxicity Test, soy; settings: 2500 ppm spray, ten days
Protocol: (§5) Experiments were also conducted to determine the phytotoxicity of representative compounds with respect to healthy fresh plants. […] The test plants were sprayed in accordance with the procedure described above for the Mite Foliage Spray Test so as to deliver approximately 100 milliliters of test solution to the leaves of each plant tested. The sprayed plants and controls were set aside for approximately one hour to allow the foliage to dry and were then placed in the greenhouse. After ten days the plants were visually inspected to determine the extent of foliage injury. A rating of 1 indicates no perceptible injury; 5 indicates the plant was dead and ratings of 2, 3 and 4 indicate intermediate degrees of injury based upon the number and extent to which leaves were injured.

Bean = test: Phytotoxicity Test, bean; settings: 2500 ppm spray, ten days
Protocol: as §5

Corn = test: Phytotoxicity Test, corn; settings: 2500 ppm spray, ten days
Protocol: as §5

Tom = test: Phytotoxicity Test, tomato; settings: 2500 ppm spray, ten days
Protocol: as §5

Cotton = test: Phytotoxicity Test, cotton; settings: 2500 ppm spray, ten days
Protocol: as §5

rat = test: Mammalian Toxicity, peroral toxicity to rat; format: in vivo
Protocol: as §4

Row | Compound | LC50 [1] [µg/mL] | LC50 [2] [µg/mL] | LC50 [3] [µg/mL] | LC50 [4] [µg/mL] | LC50 [5] [µg/mL] | Biological Activity: Nem (nematode, galling rating) [6] | LD50 [7] [mg/kg] | Phytotoxicity: Soy (Soy) | Phytotoxicity: Bean (Bean) | Phytotoxicity: Corn (Corn) | Phytotoxicity: Tom (Tom) | Phytotoxicity: Cotton (Cotton) | A.O. Rat LD50 (rat) [Mg/Kg]
1 | CNC(=O)Oc1ccc(C(C)(C)C)cc1 | > 500 | > 500 | > 500 | > 500 | > 500 |  |  |  |  |  |  |  | 
2 | CN(SN(C)C(=O)Oc1ccc(C(C)(C)C)cc1)C(=O)Oc1ccc(C(C)(C)C)cc1 | > 500 | > 500 | > 500 | > 500 | > 500 |  |  |  |  |  |  |  | 
3 | CC(C)c1cccc(OC(=O)N(C)SN(C)C(=O)Oc2cccc(C(C)C)c2)c1 | 70 (≈ 168 µM) | > 500 | 62 (≈ 149 µM) | 11 (≈ 26.4 µM) | 150 (≈ 360 µM) |  |  |  |  |  |  |  | 
4 | CN(SN(C)C(=O)Oc1cccc2ccccc12)C(=O)Oc1cccc2ccccc12 | > 500 | > 500 | 80 (≈ 185 µM) | 6 (≈ 13.9 µM) | > 500 |  |  |  |  |  |  |  | 
5 | CNC(=O)ON=C1SC(C)(C)C(=O)N1C | 160 (≈ 692 µM) | 280 (≈ 1210 µM) | 30 (≈ 130 µM) | 6 (≈ 25.9 µM) | 25 (≈ 108 µM) |  |  |  |  |  |  |  | 
6 | CSC(C)=NOC(=O)N(C)SN(C)C(=O)Oc1ccccc1C1SCCS1 [XXXVI] |  |  |  |  |  | 4 | 50.4 | 1 | 1 | 1 | 1 | 1 | 
7 | CSC(C)=NOC(=O)N(C)SN(C)C(=O)ON=C(C)SCCC#N [X] |  |  |  |  |  | 1 | 67.3 | 1 | 1 | 1 | 1 | 2 | 
8 | CSC(C)=NOC(=O)N(C)SN(C)C(=O)Oc1ccc(C(C)(C)C)cc1 [drawing 80] | 40 (≈ 100 µM) | > 500 | 7 (≈ 17.5 µM) | 9 (≈ 22.5 µM) | 35 (≈ 87.6 µM) |  |  |  |  |  |  |  | 
9 | CSC(C)=NOC(=O)N(C)SN(C)C(=O)Oc1cccc(C(C)C)c1 [drawing 83] | 50 (≈ 130 µM) | 500 (≈ 1300 µM) | 9 (≈ 23.3 µM) | 9 (≈ 23.3 µM) | 15 (≈ 38.9 µM) |  |  |  |  |  |  |  | 
10 | CSC(C)=NOC(=O)N(C)SN(C)C(=O)Oc1cccc2ccccc12 [drawing 86] | 8 (≈ 20.3 µM) | 500 (≈ 1270 µM) | 6 (≈ 15.2 µM) | 3 (≈ 7.62 µM) | 24 (≈ 61 µM) |  |  |  |  |  |  |  | 
11 | CN(SN(C)C(=O)ON=C1SC(C)(C)C(=O)N1C)C(=O)ON=C1CSCCS1 [drawing 88] | > 500 | 6 (≈ 12.8 µM) | 29 (≈ 62 µM) | 22 (≈ 47 µM) | 2 (≈ 4.28 µM) |  |  |  |  |  |  |  | 
12 | N-[1-Methylthioacetaldehyde O-(N-methylcarbamoyl)oxime]N-[3-(and 4)-isopropylphenyl-(N-methylcarbamoyloxy)]sulfide [XVII] |  |  |  |  |  | 4 |  | 1 | 1 | 1 | 1 | 1 | 126.0
